Test results reported in patent US12264156B2, “Compounds and pharmaceutical compositions thereof for the treatment of diseases” (GALAPAGOS NV, priority 2018, dated 2025).

Legend:
[1] = molecular target: T1, SIK2 (Homo sapiens, UniProt Q9H0K1); test: ADP-Glo kinase assay, SIK2; format: biochemical; details: ADP-Glo SIK kinase assay
T1 construct: purchased ThermoFisher Scientific PV4792
Procedure, shortened: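 Wells with 1% DMSO or 10 μM staurosporine (final) define the control window. The kinase reaction with substrate and ATP runs 120 min at RT, followed by ADP-Glo detection: ATP depletion (40 min) and ADP-derived luminescence (30 min).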

[2] = system: LPS triggered IL-10 secretion in monocyte-derived macrophages (MdM); test: MdM assay: LPS-triggered IL-10 (ELISA); format: cell-based, human; details: LPS 200 ng/mL, supernatant after 2 h, maximal fold change vs LPS only
Experimental: SIK inhibition inhibits TNFα and increases IL-10 release in LPS triggered monocyte-derived macrophages (MdM) and dendritic […] al. 2012; Sundberg et al. 2014; Ozanne et al. 2015). This assay evaluates illustrative compounds of the invention for their inhibition of LPS-induced TNFα and LPS triggered IL-10 secretion in monocyte-derived macrophages. PBMCs are isolated from human blood samples (buffycoats). The buffy coat is aseptically transferred into a 50 mL Falcon tube, and diluted 1/2 in PBS. Falcon tubes are filled with 20 mL LymphoprepTM, on top of which 25 mL of the buffy coat is carefully added, tubes are centrifuged for 35 min at 400 g in temperature controlled centrifuge, without brake, at 25° C. PBMCs are aspirated from the white interface layer between sample and LymphoprepTM. PBMCs are washed five times in PBS. Cells are resuspended in RPMI 1640 complete medium supplemented with 10% FBS, 1% P/S, and cell density is determined using a hematologic analyzer (Sysmex XS-500i). PBMCs are centrifuged at 300×g for 10 min and resuspended at a density of 1.0*10^7 cells/80 μL Miltenyi buffer (PBS, pH 7.4, 1% FBS, 2 mM EDTA). Starting from this point of the protocol all steps are performed on ice. 20 μL of CD14+ micro-beads are added per 1.0*10^7 cells, the tube is mixed and incubated for 15 min in the fridge at 4° C. Cell suspension volume is adjusted to total volume of 100 mL using Miltenyi buffer, mixed gently and subsequently centrifuged for 10 min at 300×g. Supernantant is discarded and cell pellet is resuspended in 12 mL of Miltenyi buffer. Four LS columns are placed in the MACS Separator (magnet) from Miltenyi Biotec, and are prewet by rinsing with 3 mL of MACS buffer per column. Three mL of cell suspension is added onto the column (max 1*10^8 of labelled cells/column), and columns are subsequently washed 3 times with 3 mL of Miltenyi buffer. The columns are removed from the magnets, and 5 mL of Miltenyi buffer are added to the column to flush out the CD14+ fraction by pushing the plunger into the column. The flushed fractions are collected in a fresh 50 mL Falcon and volume is adjusted to 30 mL using Miltenyi buffer, cells are centrifuged for 10 min at 300×g. The obtained cell pellet is resuspended in 10 mL RPMI w/o FBS, and cell density is determined using a hematologic analyser (Sysmex XS-500i). 100 000 cells are seeded per well of a 96-well plate for differentiation to MdM in RPMI 1640 medium supplemented with 10% FBS, 1% P/S and 100 ng/mL rhM-CSF. On day 5 the medium is refreshed with 100 μL RPMI 1640 medium supplemented with 10% FBS, 1% P/S and 100 ng/mL rhM-CSF. On day 10, MdMs are triggered and compound is added. A compound dilution plate is made in 100% DMSO by 3-fold dilution of 10 mM stock solution. An intermediate dilution plate (10× final concentration) is made by diluting the compound dilution plate 50-fold in RPMI medium. Medium is carefully removed from cell plates using multichannel pipette, and replaced by 80 μL fresh medium. 10 μL of the 10× final concentration compound is added to the cells and incubated for 1 hour at 37° C. before addition of trigger. No trigger conditions/trigger conditions are spiked with equal final DMSO concentrations of 0.2% DMSO. 10 μL of 10×LPS (final conc. 200 ng/mL) solution are added to all wells except for the 'no trigger wells' where 10 μL medium is added. Supernatant is collected after 2 h (IL-10 determination) and after 20 h (TNFα determination) of LPS triggering. […]

T1 sequence (Q9H0K1 whole entry): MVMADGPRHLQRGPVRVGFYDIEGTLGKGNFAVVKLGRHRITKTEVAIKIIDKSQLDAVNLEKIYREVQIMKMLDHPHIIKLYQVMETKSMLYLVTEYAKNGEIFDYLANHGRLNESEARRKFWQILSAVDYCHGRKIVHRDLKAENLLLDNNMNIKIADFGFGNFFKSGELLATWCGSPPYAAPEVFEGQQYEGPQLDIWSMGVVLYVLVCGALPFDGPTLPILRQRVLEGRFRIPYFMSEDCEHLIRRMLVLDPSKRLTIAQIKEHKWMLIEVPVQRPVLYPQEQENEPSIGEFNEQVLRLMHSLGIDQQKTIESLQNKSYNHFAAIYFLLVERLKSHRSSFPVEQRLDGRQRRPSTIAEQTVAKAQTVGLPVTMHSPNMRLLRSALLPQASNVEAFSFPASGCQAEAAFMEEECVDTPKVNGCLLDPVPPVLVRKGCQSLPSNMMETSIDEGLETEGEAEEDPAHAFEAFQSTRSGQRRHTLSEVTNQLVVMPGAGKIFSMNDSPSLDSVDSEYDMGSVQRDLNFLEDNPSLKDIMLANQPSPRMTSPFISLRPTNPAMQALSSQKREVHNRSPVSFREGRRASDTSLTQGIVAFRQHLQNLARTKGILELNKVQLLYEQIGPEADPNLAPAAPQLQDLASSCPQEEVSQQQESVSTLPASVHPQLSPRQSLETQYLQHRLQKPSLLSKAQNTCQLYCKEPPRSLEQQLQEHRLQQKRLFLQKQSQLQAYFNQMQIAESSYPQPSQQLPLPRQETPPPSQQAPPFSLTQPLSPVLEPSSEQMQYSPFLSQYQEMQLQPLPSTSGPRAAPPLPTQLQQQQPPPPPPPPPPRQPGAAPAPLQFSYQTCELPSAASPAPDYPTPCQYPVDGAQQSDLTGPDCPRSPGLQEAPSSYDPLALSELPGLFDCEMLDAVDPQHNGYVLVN

SMILES | IC50 [1] [nM] | IL-10 FCmax median [2]
CNc1cc(-c2cnc3cc(OCCN(C)C)ccn23)cc(OC(F)F)c1C(=O)NCC(F)(F)F [Cpd 165, 2-(difluoromethoxy)-4-[7-[2-(dimethylamino)ethoxy]imidazo[1,2-a]pyridin-3-yl]-6-(methylamino)-N-(2,2,2-trifluoroethyl)benzamide] | 0.01 to 10 | ++ (>1.5-4.5)
CCN(CC)CCOc1ccn2c(-c3cc(OC)c(C(=O)NC4CC4)c(OC(F)F)c3)cnc2c1 [compound 107, N-cyclopropyl-4-[7-[2-(diethylamino)ethoxy]imidazo[1,2-a]pyridin-3-yl]-2-(difluoromethoxy)-6-methoxy-benzamide] | 0.01 to 10 | + (≤1.5)
COc1cc(-c2cnc3cc(OCCCN4CCCC(O)C4)ccn23)cc(OC(F)F)c1C(=O)NC1CC1 (stereo not drawn) [compound 328, N-cyclopropyl-2-(difluoromethoxy)-4-[7-[3-(3-hydroxy-1-piperidyl)propoxy]imidazo [1,2-a]pyridin-3-yl]-6-methoxy-benzamide] | 0.01 to 10 | ++ (>1.5-4.5)
CCOC(=O)C1(F)CCN(CC(O)COc2ccn3c(-c4cc(OC)c(C(=O)NC5CC5)c(OC(F)F)c4)cnc3c2)CC1 (stereo not drawn) [compound 384, ethyl 1-[3-[3-[4-(cyclopropylcarbamoyl)-3-(difluoromethoxy)-5-methoxy-phenyl]imidazo[1,2-a]pyridin-7-yl]oxy-2-hydroxy-propyl]-4-fluoro-piperidine-4-carboxylate] | 0.01 to 10 | ++ (>1.5-4.5)
COc1cc(-c2cnc3cc(OCCN(C)C)ccn23)cc(OC(F)F)c1C(=O)NC1CC1 [Cpd 6, N-cyclopropyl-2-(difluoromethoxy)-4-[7-[2-(dimethylamino)ethoxy]imidazo[1,2-a]pyridin-3-yl]-6-methoxy-benzamide] | 0.01 to 10 | ++ (>1.5-4.5)
COc1cc(-c2cnc3cc(OCCN)ccn23)cc(OC(F)F)c1C(=O)NC1CC1 [compound 118, 4-[7-(2-aminoethoxy)imidazo[1,2-a]pyridin-3-yl]-N-cyclopropyl-2-(difluoromethoxy)-6-methoxy-benzamide] | 0.01 to 10 | ++ (>1.5-4.5)
CNCCOc1ccn2c(-c3cc(OC)c(C(=O)NC4CC4)c(OC(F)F)c3)cnc2c1 [compound 117, N-cyclopropyl-2-(difluoromethoxy)-6-methoxy-4-[7-[2-(methylamino)ethoxy]imidazo[1,2-a]pyridin-3-yl]benzamide] | 0.01 to 10 | ++ (>1.5-4.5)
COc1cc(-c2cnc3cc(OCCN4CCOCC4)ccn23)cc2c1C(=O)N(CC(F)(F)F)CC2 [Cpd 88, 8-methoxy-6-[7-(2-morpholinoethoxy)imidazo [1,2-a]pyridin-3-yl]-2-(2,2,2-trifluoroethyl)-3,4-dihydroisoquinolin-1-one] | – | ++ (>1.5-4.5)

Second part, led by results:

IC50 [1] [nM] | SMILES | IL-10 FCmax median [2]
0.01 to 10 | COc1cc(-c2cnc3cc(OCCN4CCCC4)ccn23)cc2c1C(=O)N(CC(F)(F)F)CC2 [compound 123, 8-methoxy-6-[7-(2-pyrrolidin-1-ylethoxy)imidazo[1,2-a]pyridin-3-yl]-2-(2,2,2-trifluoroethyl)-3,4-dihydroisoquinolin-1-one] | ++ (>1.5-4.5)
0.01 to 10 | COc1cc(-c2cnc3cc(OCC4CCCCN4C)ccn23)cc(OC(F)F)c1C(=O)NC1CC1 (stereo not drawn) [compound 23, N-cyclopropyl-2-(difluoromethoxy)-6-methoxy-4-[7-[(1-methyl-2-piperidyl)methoxy]imidazo[1,2-a]pyridin-3-yl]benzamide] | ++ (>1.5-4.5)
0.01 to 10 | COc1cc(-c2cnc3cc(OCC4(C)CN(C)C4)ccn23)cc(OC(F)F)c1C(=O)NC1CC1 [compound 220, N-cyclopropyl-2-(difluoromethoxy)-4-[7-[(1,3-dimethylazetidin-3-yl)methoxy]imidazo[1,2-a]pyridin-3-yl]-6-methoxy-benzamide] | ++ (>1.5-4.5)
0.01 to 10 | COc1cc(-c2cnc3cc(OCC4CN(C)CCO4)ccn23)cc2c1C(=O)N(CC(F)(F)F)CC2 (stereo not drawn) [compound 127, 8-methoxy-6-[7-[(4-methylmorpholin-2-yl)methoxy]imidazo[1,2-a]pyridin-3-yl]-2-(2,2,2-trifluoroethyl)-3,4-dihydroisoquinolin-1-one] | ++ (>1.5-4.5)
0.01 to 10 | COc1cc(-c2cnc3cc(OC[C@@H]4COCCO4)ccn23)cc2c1C(=O)N(CC(F)(F)F)CC2 [compound 225, 6-[7-[[(2S)-1,4-dioxan-2-yl]methoxy]imidazo[1,2-a]pyridin-3-yl]-8-methoxy-2-(2,2,2-trifluoroethyl)-3,4-dihydroisoquinolin-1-one] | ++ (>1.5-4.5)
10 to 100 | COc1cc(-c2cnc3cc(OCCN4CCOC[C@@H]4C)ccn23)cc2c1C(=O)N(CC(F)(F)F)CC2 [Cpd 257, 8-methoxy-6-[7-[2-[(3S)-3-methylmorpholin-4-yl]ethoxy]imidazo[1,2-a]pyridin-3-yl]-2-(2,2,2-trifluoroethyl)-3,4-dihydroisoquinolin-1-one] | ++ (>1.5-4.5)
0.01 to 10 | COc1cc(-c2cnc3cc(OCCCN4CC(O)C4)ccn23)cc(OC(F)F)c1C(=O)NC1CC1 [Cpd 286, N-cyclopropyl-2-(difluoromethoxy)-4-[7-[3-(3-hydroxyazetidin-1-yl)propoxy]imidazo[1,2-a]pyridin-3-yl]-6-methoxy-benzamide] | ++ (>1.5-4.5)
0.01 to 10 | COc1cc(-c2cnc3cc(OCCN4CCOC[C@H]4C)ccn23)cc(OC(F)F)c1C(=O)NC1CC1 [compound 234, N-cyclopropyl-2-(difluoromethoxy)-6-methoxy-4-[7-[2-[(3R)-3-methylmorpholin-4-yl]ethoxy]imidazo[1,2-a]pyridin-3-yl]benzamide] | ++ (>1.5-4.5)
10 to 100 | COc1cc(-c2cnc3cc(OC[C@H]4COCCO4)ccn23)cc2c1C(=O)N(CC(F)(F)F)CC2 [Cpd 86, 6-[7-[[(2R)-1,4-dioxan-2-yl]methoxy]imidazo[1,2-a]pyridin-3-yl]-8-methoxy-2-(2,2,2-trifluoroethyl)-3,4-dihydroisoquinolin-1-one] | ++ (>1.5-4.5)
0.01 to 10 | COc1cc(-c2cnc3cc(OC[C@H]4CCCN4C)ccn23)cc2c1C(=O)N(CC(F)(F)F)CC2 [compound 124, 8-methoxy-6-[7-[[(2R)-1-methylpyrrolidin-2-yl]methoxy]imidazo[1,2-a]pyridin-3-yl]-2-(2,2,2-trifluoroethyl)-3,4-dihydroisoquinolin-1-one] | ++ (>1.5-4.5)
0.01 to 10 | COc1cc(-c2cnc3cc(OCCN4C[C@@H]5C[C@H]4CO5)ccn23)cc(OC(F)F)c1C(=O)NC1CC1 [compound 206, N-cyclopropyl-2-(difluoromethoxy)-6-methoxy-4-[7-[2-[(1S,4S)-2-oxa-5-azabicyclo[2.2.1]heptan-5-yl]ethoxy]imidazo[1,2-a]pyridin-3-yl]benzamide] | ++ (>1.5-4.5)
0.01 to 10 | COc1cc(-c2cnc3cc(OCCCN4CCNCC4)ccn23)cc(OC(F)F)c1C(=O)NC1CC1 [compound 278, N-cyclopropyl-2-(difluoromethoxy)-6-methoxy-4-[7-(3-piperazin-1-ylpropoxy)imidazo[1,2-a]pyridin-3-yl]benzamide] | ++ (>1.5-4.5)
